Measured values as given in publication PMC8395737 (2021).

Key:
[1] = tested on: TP3-T6 (DNA, G4) TGGGGTCCGAGGCGGGGCTTGGG; assay: CD melting at 285 nm; details: 70 mM KCl, 20 mM phosphate, pH 7.1, 2 µM DNA, 6 µM ligand
[2] = tested on: TP3-T6 (DNA, G4) TGGGGTCCGAGGCGGGGCTTGGG; assay: 1H NMR imino proton titration; details: 70 mM KCl, 20 mM KH2PO4, pH 7.0, 25 °C, H2O/D2O 9:1, DMSO <7%
[3] = tested on: TP3-T6 (DNA, G4) TGGGGTCCGAGGCGGGGCTTGGG; assay: ligand fluorescence titration, EQUISPEC multivariate fit; details: 70 mM KCl, 20 mM potassium phosphate; 20 mM phosphate buffer, pH 7.1, 20 °C, 3 µM ligand

Row | ΔTm ([1]; derived from two Tm (58.8 ± 1.3, 59.6 ± 0.8)) [°C] | binding ([2]; R up to 2.0, 5'-end tetrad slightly shifted) | Kb [3] | ΔTm ([1]; derived from two Tm (60.3 ± 1.3, 59.6 ± 0.8)) [°C] | binding ([2]; R up to 2.0, 3'-end tetrad) | ΔTm ([1]; derived from two Tm (60.2 ± 1.0, 59.6 ± 0.8)) [°C] | binding ([2]; up to R = 2.0, DNA 0.24–0.48 mM) | SMILES
1 | -0.8 | weak | 5.48 ± 0.16 × 10^5 M^-1 |  |  |  |  | C[C@]1(c2nc3c(C(N)=O)cccc3[nH]2)CCCN1
2 |  |  | 5.24 ± 0.20 × 10^5 M^-1 | 0.7 | yes |  |  | NC(=O)c1cccc2cn(-c3ccc([C@@H]4CCCNC4)cc3)nc12
3 |  |  | 5.45 ± 0.15 × 10^5 M^-1 |  | yes | 0.6 |  | NC(=O)n1ccc2ccc(-c3ccc(CN4CCCCC4)cc3)nc21
4 |  |  |  |  |  |  | no | O=C(c1cc(Cc2n[nH]c(=O)c3ccccc23)ccc1F)N1CCN(C(=O)C2CC2)CC1
